Laboratory results reported in ChEMBL document CHEMBL3112523, “Synthesis and biological evaluation of benzo[4,5]imidazo[1,2-c]pyrimidine and benzo[4,5]imidazo[1,2-a]pyrazine derivatives as anaplastic lymphoma kinase inhibitors” (Bioorg Med Chem, 2014).

How the values were obtained:
[1] = biological target: ALK tyrosine kinase receptor (Homo sapiens, UniProt Q9UM73)
[2] = biological target: ALK tyrosine kinase receptor (Homo sapiens, UniProt Q9UM73, L1196M)
[3] = tested on: BaF3; test: cells; conditions: Mus musculus
Description: Cytotoxicity against mouse BAF3 cells assessed as growth inhibition after 72 hrs by [3H]-thymidine incorporation assay

Row | Structure (SMILES) | IC50 [1] [µM] | IC50 [2] [µM] | IC50 [3] [µM]
1 | COc1ccc(-c2cncc3nc4ccc(-c5ccc(N6CCN(C)CC6)cc5)cc4n23)cc1 | 14 | – | –
2 | c1ccc(Nc2cc3nc4ccccc4n3cn2)cc1 | 52 | 10 | –
3 | O=[N+]([O-])c1cccc(Nc2cc3nc4ccccc4n3cn2)c1 | 10 | 14 | –
4 | COc1ccc(-c2ccc3nc4cncc(/C=C/c5ccccc5)n4c3c2)cc1 | 0.65 | 1.5 | > 12.5
5 | Brc1ccc2nc3cc(Nc4ccccc4)ncn3c2c1 | 69 | 49 | 5.2
6 | COc1cccc(Nc2cc3nc4ccccc4n3cn2)c1 | 51 | – | –
7 | CN1CCN(c2ccc(-c3ccc4nc5cncc(-c6ccc(N7CCN(C)CC7)cc6)n5c4c3)cc2)CC1 | > 100 | 29 | 0.87
8 | Clc1cc2nc3ccc(Br)cc3n2cn1 | > 50 | – | –
9 | COc1ccc(-c2cncc3nc4ccc(-c5ccc(NC(C)=O)cc5)cc4n23)cc1 | 18 | – | –
10 | Clc1cc2nc3ccccc3n2cn1 | > 100 | – | –
11 | COc1ccc(-c2cncc3nc4ccc(/C=C/c5ccccc5)cc4n23)cc1 | 3.5 | 4.5 | –
12 | COc1ccc(-c2cc3nc4ccc(Br)cc4n3cn2)cc1 | 10 | – | > 25
13 | Clc1cncc2nc3ccccc3n12 | > 100 | – | –
14 | Clc1cncc2nc3ccc(Br)cc3n12 | > 50 | – | 2.4
